Experimental data from patent US7511123B2, “Immuno-interactive fragments of the alpha-C subunit of inhibin” (Prince Henry's Institute of Medical Research, priority 1999, dated 2009).

Tests used:
PO-22 [1] = test: Solid phase binding of Set 2 peptides to PO-22; parameters: species or system mouse; key: +++; ΦΦΦ strong effect; +, Φ weak effect; conditions: Set 2 biotinylated peptides 24 micromoles/L
Procedure: (§1) The binding of the 41 biotinylated peptides as set forth in Table 7 (peptide set 2) to the mouse monoclonal antibodies (PO# series) was assessed as follows:
(§2) a) Assay 1 (solid phase assay). The assay was undertaken as outlined in assay 1 of Example 2. Biotinylated peptides (24 micromoles/L) were initially bound to streptavidin-coated plates. Mab (at an appropriate dilution to give a detectable response, 1:1000, 1:10000 dilution of the culture medium) was then added and incubated for 1.5 hr. The amount of bound Mab was determined using horseradish peroxidase-bound anti-mouse IgG serum and enzyme activity detected at 450-630 nm using an ELISA plate reader.

As #41 [2] = test: RIA (Assay 2): competition with iodinated inhibin for As #41; assay type: binding, sheep; conditions: for As#41 ED50: biotinylated peptides, 50% fall in binding of iodinated inhibin
Excerpt: (§3) This assay was used to determine which peptides compete with iodinated 30 kDa inhibin for As #41, #128 and #1989 (used in the original inhibin RIA, Lapphorn et al., 1989, supra) in a RIA format. This assay identifies those peptides that bind to inhibin-binding antibodies in the antiserum and provides a stricter affinity and specificity assessment in identifying the appropriate epitopes than that found with Assay 1. The competition between peptide and hr-inhibin (used as the standard) was assessed from their ED50 values. The RIA consisted of the competition of iodinated inhibin and either hr-inhibin reference preparation, individual peptides or pools from the 4 peptide regions, with As #41, #128 and in some instances, As #1989. The peptides/inhibin/iodinated inhibin and antisera (at a prescribed dilution) were incubated overnight at 4° C. using standard methodologies. The antibody-bound iodinated inhibin was immunoprecipitated with the addition of an anti-sheep IgG serum raised in goats and the radioactivity was measured in a gamma counter. The concentration of peptide that gives a 50% fall in binding of iodinated inhibin (ED50) was determined and this value was used to give a measure of the affinity of the peptide for the antiserum. This methodology consisted of determining the ED50 of the peptide in the RIA using iodinated human recombinant inhibin as tracer with either As #41, As #128 or As #1989 and graded doses of either hr-inhibin or peptide as described in Example 2.

As #128 [3] = test: Solid phase assay (Assay 1): biotinylated peptides binding to As #128; parameters: species or system sheep; key: +++++ major contribution; + minor contribution; conditions: relative contribution
Procedure: (§4) This assay is a broad screen of the binding of the 31 biotinylated peptides to As #41 and #128 as recommended by Chiron Mimotopes.
(§5) The biotinylated peptides were initially bound to streptavidin-coated 96-well plates (2 hours at room temperature), antiserum #41 or #128 was then added (2 hours room temperature) to bind to the peptides. Detection of antiserum binding was assessed by a further incubation with an anti-ovine IgG serum labeled with the enzyme, horseradish peroxidase. The enzyme activity was assessed by conversion of a colorless substrate to a colored product that is detected in a spectrophotometer. The enzyme activity measured was proportional to the extent of the binding of the peptides.

As #1989 = test: RIA (Assay 2): competition with iodinated inhibin for As #1989; assay type: binding, rabbit; conditions: for As#1989 ED50: biotinylated peptides, 50% fall in binding of iodinated inhibin
Excerpt: as §3

As #128 [4] = test: RIA (Assay 2): competition with iodinated inhibin for As #128; assay type: binding, sheep; conditions: for As#128 ED50: biotinylated peptides, 50% fall in binding of iodinated inhibin
Excerpt: as §3

As #128 [5] = test: Competitive 2-site assay (Assay 3), approach (a); assay type: binding, sheep; parameters: key: +++++ major contribution; + minor contribution; conditions: relative contribution
Excerpt: This assay was developed to establish the relative importance of the individual peptides and peptide pools (identified as epitopes in Assays 1 and 2) in the sandwich antibody format used in the IFMA with As #128 as capture antibody and As #41 as detection antibody. Two approaches (a and b) were considered, Approach (a) explores the cross-reaction of peptides with inhibin for the immobilized As #128 while Approach (b) assesses their cross-reaction with inhibin for As #41.
Approach (a). The biotinylated peptide pools and/or individual peptides at various concentrations, in combination with a fixed concentration of hr-inhibin, were incubated for 2 hours with As #128-coated plates. The plates were then washed to remove any unbound material. Iodinated As #41 was then added to bind to the bound hr-inhibin, the plates washed and the bound radioactivity was measured in a gamma counter. The counts measured were proportional to the amount of hr-inhibin bound to both antisera. The possibility that a peptide contained two epitopes capable of linking As #128 and #41 was assessed in the absence of added hr-inhibin.

PO-22 [6] = test: RIA of Set 2 peptides with PO-22; assay type: binding, mouse; parameters: key: ΦΦΦ strong effect; +, Φ weak effect; a) limited binding; conditions: Set 2 biotinylated peptides 0.8 and 0.08 micromoles/L
Procedure: (§6) The binding of the 41 biotinylated peptides as set forth in Table 7 (peptide set 2) to the mouse monoclonal antibodies (PO# series) was assessed as follows: b) Assay 2 (radioimrnunoassay, RIA) using iodinated human inhibin A as tracer. Mabs (at an appropriate dilution, see above) were incubated with iodinated human recombinant inhibin in the presence of biotinylated peptides (0.8 and 0.08 micromoles/L final concentration) overnight at room temperature.

PO-6 = test: Solid phase binding of Set 2 peptides to PO-6; parameters: species or system mouse; key: +++; ΦΦΦ strong effect; +, Φ weak effect; conditions: Set 2 biotinylated peptides 24 micromoles/L
Procedure: as §1, §2

R1 [7] = test: Solid phase binding of Set 2 peptides to R1; parameters: species or system mouse; key: +++; ΦΦΦ strong effect; +, Φ weak effect; conditions: Set 2 biotinylated peptides 24 micromoles/L
Procedure: as §1, §2

R1 [8] = test: RIA of Set 2 peptides with R1; assay type: binding, mouse; parameters: key: ΦΦΦ strong effect; +, Φ weak effect; a) limited binding; conditions: Set 2 biotinylated peptides 0.8 and 0.08 micromoles/L
Procedure: as §6

As #41 [9] = test: Solid phase assay (Assay 1): biotinylated peptides binding to As #41; parameters: species or system sheep; key: +++++ major contribution; + minor contribution; conditions: relative contribution
Procedure: as §4, §5

PO-12 [10] = test: Solid phase binding of Set 2 peptides to PO-12; parameters: species or system mouse; key: +++; ΦΦΦ strong effect; +, Φ weak effect; conditions: Set 2 biotinylated peptides 24 micromoles/L
Procedure: as §1, §2

PO-14 [11] = test: Solid phase binding of Set 2 peptides to PO-14; parameters: species or system mouse; key: +++; ΦΦΦ strong effect; +, Φ weak effect; conditions: Set 2 biotinylated peptides 24 micromoles/L
Procedure: as §1, §2

PO-12 [12] = test: RIA of Set 2 peptides with PO-12; assay type: binding, mouse; parameters: key: ΦΦΦ strong effect; +, Φ weak effect; a) limited binding; conditions: Set 2 biotinylated peptides 0.8 and 0.08 micromoles/L
Procedure: as §6

PO-14 [13] = test: RIA of Set 2 peptides with PO-14; assay type: binding, mouse; parameters: key: ΦΦΦ strong effect; +, Φ weak effect; a) limited binding; conditions: Set 2 biotinylated peptides 0.8 and 0.08 micromoles/L
Procedure: as §6

As#128 and/or As#41 = test: Inhibin IFMA with pre-immunoabsorption of antisera by peptides; assay type: binding, sheep; conditions: As#128 coating antibody pre-absorbed with peptide(s); As#41 label: buffer
Excerpt: This IFMA is used in the measurement of inhibin in serum from women with ovarian cancer and is presented at this juncture as a reference to the following procedures. The IFMA is a sandwich antibody assay in 96-well microtiter plates. The capture antiserum is As #128 and the labeled antiserum As #41, both raised in sheep to the alpha subunit of human inhibin. Sheep As #128 was also boosted with human recombinant 30-kDa inhibin. The microtiter plates were coated with a caprylic acid IgG cut of antiserum #128. Inhibin standard and serum samples were added and incubated for 2 hours at room temperature. A biotinylated antiserum (As #41) which has been immunopurified by absorption to a column of bovine (alpha)C subunit fusion protein (as previously described, Robertson et al., 1997, supra) followed by elution with a glycine (pH 2.5) buffer, was added to bind to the antibody-bound inhibin (2-hour incubation at room temperature). Fluorescently (Eu) labeled-streptavidin that has a high affinity for biotin is added (30 minutes at room temperature) and the Eu-bound streptavidin is counted in a time-resolved fluorimeter. The Eu measured is proportional to the inhibin bound by the two antisera.
As another approach, the competition of combinations of peptides at a maximum saturating dose was assessed in the IFMA (FIGS. 7-9). […] This suppression in binding provides a measure of the contribution of that particular epitope to the assay.

As #128 [14] = test: Two-site assay design: peptides pre-incubated with As #128 coated plate; assay type: binding, sheep; conditions: non-biotinylated peptides 0.1-1 micromolar
Procedure: On the other hand, the IFMA design is based on the total amount of inhibin bound which is a combination of both antibody affinity and concentration. In order to establish to what extent epitopes to these peptides contribute to the overall IFMA, the following two-site assay designs were used.
(i) Peptides #5, #20 and #30 (0, 0.1-1 micromolar) were incubated with the As #128 coated plate for 1.5 hours at RT and the wells washed. The highest dose of peptide used was saturating.
(ii) Hr-Inhibin was then added as a saturating or near saturating dose to the As #128 coated plate and incubated for 2 hours at room temperature and the plate washed.
(iii) Biotinylated As #41 was added to the above wells and incubated for 2 hours at RT. Plates were then washed and counted.

As #41 [15] = test: Two-site assay design variation: biotinylated #41 pre-incubated with peptide; assay type: binding, sheep; conditions: non-biotinylated peptides 0.1-1.0 micromolar
Procedure: (iv) In a variation to the above design, biotinylated #41 was pre-incubated with peptide (0.1-1.0 micromolar) for 1.5 hours at room temperature and then added to the As #128 coated plate pre-bound with inhibin as for (i)-(iii). […] Combination of peptide #5 and #30 led to 74% decrease.

[16] = non-biotinylated peptides, hr-inhibin A as standard

Substance	PO-22 SPB (PO-22 [1])	#128 Antibody screen Assay 1 (As #128 [3])	PO-6 SPB (PO-6)	R1 SPB (R1 [7])	#41 Antibody screen Assay 1 (As #41 [9])	As#41 ED50 (As #41 [2])	As#1989 ED50 (As #1989)	As#128 ED50 (As #128 [4])	#128 2-site competitive assay Assay 3 (As #128 [5])	PO-22 RIA (PO-22 [6])	also measured
SGSG MSWPWSPSALRLLQ [Peptide 4]	+++	+	+++	+		1.3 µM	>2.5 µM	3.8 µM	+	ΦΦΦ	
SGSG STPLMSWPWSPSAL [Peptide 3]	+++		+++	+++			>2.5 µM	38 µM		ΦΦΦ	R1 RIA (R1 [8]): ΦΦΦ
SGSG QPCCAALPGTMRPL [Peptide 26]						1 µM	>2.5 µM	0.625 µM			PO-12 SPB (PO-12 [10]): +++; PO-14 SPB (PO-14 [11]): +++; PO-12 RIA (PO-12 [12]): ΦΦΦ; PO-14 RIA (PO-14 [13]): ΦΦΦ
SGSG PNLSLPVPGAPPTP [Peptide 20]		+				3.6 µM	>2.5 µM	0.02 µM	+		ED50 values As#41 (As #41 [2]; [16]): >5 µM; % suppression at 2ng inhibin (As#128 and/or As#41): 13%; suppression in binding with As #128 (As #128 [14]): 23%; inhibition with biotinylated #41 pre-incubated with peptide (As #41 [15]): no inhibition; ED50 values As#1989 (As #1989; [16]): >5 µM; ED50 values As#128 (As #128 [4]; [16]): 0.15 µM

Second part, led by results:

PO-22 SPB (PO-22 [1])	#128 Antibody screen Assay 1 (As #128 [3])	PO-6 SPB (PO-6)	R1 SPB (R1 [7])	#41 Antibody screen Assay 1 (As #41 [9])	Substance	As#41 ED50 (As #41 [2])	As#1989 ED50 (As #1989)	As#128 ED50 (As #128 [4])	#128 2-site competitive assay Assay 3 (As #128 [5])	PO-22 RIA (PO-22 [6])	also measured
				+	SGSG GTMRPLHVRTTSDG [Peptide 28]	4 µM	>2.5 µM	0.625 µM			
				+	SGSG DGGYSFKYETVPNL [Peptide 31]	2.4 µM	>2.5 µM	1.4 µM			
